From patent EP4711371A1 (priority 2023, dated 2024)
Read-outs that look alike come from different tables or passages of the source.

Tests used:
Assay type in all cases: cell-based
[1] = system: T47D; assay: cells; settings: Homo sapiens, 120 h, read-out: T47D IC50
Method: (§1) Test Example 2 In vitro proliferation inhibition assay of the camptothecin derivatives (Payload) of the present invention on tumor cells 1. Instruments and Reagents
(§2) 2. Experimental Procedure • a. Plating & culture: MDA-MB-453 (purchased from: Xiehe, catalog number: 1101HUM-PUMCO00016)/T47D (Kebai, CBP60397)/HT1376 cells (purchased from: Kebai, catalog number: CBP60310) were cultured into 96-well plates by a density of 1×10^3 /2×10^3 /1×10^3 cells per100 µL, and 200 µL of PBS was added to the outermost circle (to reduce the volatilization of the culture medium), and cultured at 37°C, 5% CO2 incubator for 24 h; • b. Drug Addition & Incubation: The 96-well flat-bottom plate was retrieved. The culture medium in the wells was aspirated, and 100 µL of the ADC drug/payload (diluted in culture medium) was added to each well. The plate was then incubated at 37°C, 5% CO2 incubator for 5 days. 3. Detection and data processing • a. The 96-well plate was retrieved. The culture medium was removed, and 100 µL of detection reagent (CCK8:medium= 1:9) was added to each well. The plate was then placed in a 37°C, 5% CO2 incubator for 4 hours; • b. The optical density (OD) at 450 nm was measured using a microplate reader (model: CEY0017), and the data was recorded with Excel. • c. Graphpad Prism 9.0 was used to analyze and organize the data.

[2] = system: HT1376; assay: In vitro proliferation inhibition assay of camptothecin derivatives (Payload), Test Example 2; settings: Homo sapiens, HT-1376, 120 h, read-out: HT1376 IC50
Method: as §1, §2

[3] = system: MDA-MB-453; assay: as above; settings: Homo sapiens, MDA-MB-453, 120 h, read-out: MDA-MB-453 IC50
Method: as §1, §2

[4] = system: MDA-MB-453; assay: In vitro proliferation inhibition assay of camptothecin derivatives (Payload), Test Example 1; settings: Homo sapiens, MDA-MB-453, 96 h; payload, cultured 4 days, CCK-8; read-out: MDA-MB-453 IC50
From the text: (§3) The control compounds used in the experiment were DXD (synthesized from EXD according to the synthesis method of patent EP2907824B1. EXD was purchased from MedChemExpress, catalog number: HY-13631A) and SN38 (purchased from Bide Pharmatech, catalog number BD8481). Their structural formulas are [drawing 515] respectively.
(§4) The cell lines used in this experiment were human breast cancer cells SK-BR-3, T47D, MDA-MB-453, human malignant melanoma cells A375, human lung squamous carcinoma cells NCI-H1703, and human gastric cancer cells NCI-N87. Cell suspensions were prepared in fresh cell culture medium containing 10% FBS and then diluted to a density of 5 × 10^4 cells/mL, 10×10^4 cells/mL, 100 µL per well was added to a 96-well cell culture plate (Thermo catalog number: 167425), and cultured at 37°C with 5% carbon dioxide for 24 h.
(§5) The test compounds of the present invention and the control compounds were each prepared to 10 mM stock solutions in DMSO, and the drugs were diluted with 5% FBS 1640 culture medium in a gradient of 50, 10, 2, 0.4, 0.08, 0.016, 0.0032, 0.00064, 0.000128, and 0 µM, with two replicates for each well.
(§6) 50 µL of cell supernatant was pipetted from each 96-well plate, followed by the addition of 50 µL of compound dilutions at final […] of 25, 5, 1, 0.2, 0.04, 0.008, 0.0016, 0.00032, 0.000064, and 0 µM. After mixing, the cells were cultured in a constant temperature CO2 incubator for 4 days. Cell supernatant was then added with 100 µL of detection reagent (5% FBS1640 medium and CCK-8 solution in a 10:1 ratio) and incubated in an incubator for 4 hours. […] was read on a microplate reader (TECAN, Spark), and data were analyzed using Graphpad Prism 8 software.

[5] = system: T47D; assay: cells; settings: Homo sapiens, 96 h, payload, cultured 4 days, CCK-8, read-out: T47D IC50
From the text: as §3, §4, §5, §6

[6] = payload, incubated 5 days, CCK8, OD 450 nm

SMILES: CC[C@@]1(O)C(=O)OCc2c1cc1n(c2=S)Cc2c-1nc1cc(F)c(OC)cc1c2CN [Compound 12]
- IC50 [1]: 93 pM
- IC50 [2]: 1970 pM
- IC50 [3]: 312 pM

SMILES: CC[C@@]1(O)C(=O)OCc2c1cc1n(c2=S)Cc2c-1nc1cc3c(cc1c2CN)OCCO3 [Compound 13]
- IC50 [1]: 59 pM
- IC50 [2]: 10900 pM
- IC50 [3]: 797 pM

SMILES: CC[C@@]1(O)C(=O)OCc2c1cc1n(c2=S)Cc2c-1nc1cc(Cl)c(C)cc1c2CN [Compound 14]
- IC50 [1]: 250 pM
- IC50 [2]: 13800 pM
- IC50 [3]: 5230 pM

SMILES: CC[C@@]1(O)C(=O)OCc2c1cc1n(c2=S)Cc2c-1nc1cc(F)c(F)cc1c2CN [Compound 15]
- IC50 [1]: 157 pM
- IC50 [2]: 9760 pM
- IC50 [3]: 1100 pM

SMILES: CC[C@@]1(O)C(=O)OCc2c1cc1n(c2=S)Cc2c-1nc1cc(F)c(C)cc1c2[C@@H](C)N [Compound 16]
- IC50 [1]: 141 pM
- IC50 [2]: 3860 pM
- IC50 [3]: 481 pM

SMILES: CC[C@@]1(O)C(=O)OCc2c1cc1n(c2=S)Cc2c-1nc1cc(F)c(C)cc1c2CNC(=O)[C@@H](O)C1CC1 [Compound 19]
- IC50 [1]: 268 pM
- IC50 [2]: 9360 pM
- IC50 [3]: 1010 pM

SMILES: CC[C@@]1(O)C(=O)OCc2c1cc1n(c2=S)Cc2c-1nc1cc(F)c(C)cc1c2CNC(=O)[C@H](O)C1CC1 [Compound 20]
- IC50 [1]: 245 pM
- IC50 [2]: 917 pM
- IC50 [3]: 8060 pM

SMILES: CC[C@@]1(O)C(=O)OCc2c1cc1n(c2=S)Cc2c-1nc1cc(F)c(C)cc1c2CNC(=O)[C@H]1C[C@@H](O)C1 [Compound 21]
- IC50 [1]: 108 pM
- IC50 [2]: 11600 pM
- IC50 [3]: 294 pM

SMILES: CC[C@@]1(O)C(=O)OCc2c1cc1n(c2=S)Cc2c-1nc1cc(F)c(C)cc1c2CNC(=O)[C@H](C)O [Compound 22]
- IC50 [1]: 116 pM
- IC50 [2]: 5380 pM
- IC50 [3]: 362 pM

SMILES: CC[C@@]1(O)C(=O)OCc2c1cc1n(c2=S)Cc2c-1nc1cc(F)c(C)cc1c2CNC(=O)[C@@H](C)O [Compound 23]
- IC50 [1]: 117 pM
- IC50 [2]: 5940 pM
- IC50 [3]: 343 pM

SMILES: CC[C@@]1(OC(=O)Cn2cc(F)c(=O)[nH]c2=O)C(=O)OCc2c1cc1n(c2=S)Cc2c-1nc1cc(F)c(C)cc1c2CN [Compound 24]
- IC50 [1, 6]: 3600 pM
- IC50 [2, 6]: 25400 pM
- IC50 [3, 6]: 78400 pM

SMILES: CC[C@@]1(OC(=O)Cn2cc(F)c(=O)[nH]c2=O)C(=O)OCc2c1cc1n(c2=S)Cc2c-1nc1cc(F)c(C)cc1c2CNC(=O)CO [Compound 25]
- IC50 [1, 6]: 2600 pM
- IC50 [2, 6]: 8390 pM
- IC50 [3, 6]: 103000 pM

SMILES: CC[C@@]1(O)C(=O)OCc2c1cc1n(c2=S)Cc2c-1nc1cc(F)c(C)cc1c2CNC(=S)CO [Compound 26]
- IC50 [1]: < 3 pM
- IC50 [2]: 14 pM
- IC50 [3]: 1000 pM

SMILES: CC[C@@]1(O)C(=O)OCc2c1cc1n(c2=S)Cc2c-1nc1cc(F)c(C)cc1c2CNCCO [Compound 27]
- IC50 [1]: 152 pM
- IC50 [2]: 2500 pM
- IC50 [3]: 170 pM

SMILES: CC[C@@]1(O)C(=O)OCc2c1cc1n(c2=S)Cc2c-1nc1cc(F)c(C)cc1c2CNC(=O)C1CCC(O)C1 (some centres unmarked) [Compound 28]
- IC50 [1]: 150 pM
- IC50 [2]: 42400 pM
- IC50 [3]: 6170 pM

SMILES: [2H]C([2H])(O)C(=O)NCc1c2c(nc3cc(F)c(C)cc13)-c1cc3c(c(=S)n1C2)COC(=O)[C@]3(O)CC [Compound 29]
- IC50 [1]: 14 pM
- IC50 [2]: 5980 pM
- IC50 [3]: 183 pM

SMILES: CC[C@@]1(O)C(=O)OCc2c1cc1n(c2=S)Cc2c-1nc1cc(F)c(OC)cc1c2CNC(=O)[C@H]1C[C@@H](O)C1 [Compound 30]
- IC50 [1]: 391 pM
- IC50 [2]: 66700 pM
- IC50 [3]: 1010 pM

SMILES: CC[C@@]1(O)C(=O)OCc2c1cc1n(c2=S)Cc2c-1nc1cc(F)c(OC)cc1c2CNC(=O)CO [Compound 31]
- IC50 [1]: 142 pM
- IC50 [2]: 19500 pM
- IC50 [3]: 337 pM

SMILES: CC[C@@]1(O)C(=O)OCc2c1cc1n(c2=S)Cc2c-1nc1cc(F)c(OC)cc1c2CNC(=O)[C@H](C)O [Compound 32]
- IC50 [1]: 89 pM
- IC50 [2]: 15400 pM
- IC50 [3]: 417 pM

SMILES: CC[C@@]1(O)C(=O)OCc2c1cc1n(c2=S)Cc2c-1nc1cc(F)c(OC)cc1c2CNC(=O)OCCO [Compound 33]
- IC50 [1]: 392 pM
- IC50 [2]: 45400 pM
- IC50 [3]: 599 pM

SMILES: CC[C@@]1(O)C(=O)OCc2c1cc1n(c2=S)Cc2c-1nc1cc(F)c(OC)cc1c2CNC(=O)[C@@H](C)O [Compound 34]
- IC50 [1]: 151 pM
- IC50 [2]: 10100 pM
- IC50 [3]: 652 pM

SMILES: CC[C@@]1(O)C(=O)OCc2c1cc1n(c2=S)Cc2c-1nc1cc(F)c(OC)cc1c2CNC(=S)CO [Compound 35]
- IC50 [2]: 4940 pM
- IC50 [3]: ~1220 pM

SMILES: CC[C@@]1(O)C(=O)OCc2c1cc1n(c2=S)Cc2c-1nc1cc3c(cc1c2CNC(=O)CO)OCCO3 [Compound 36]
- IC50 [1]: 119 pM
- IC50 [2]: 10300 pM
- IC50 [3]: 29 pM

SMILES: CC[C@@]1(O)C(=O)OCc2c1cc1n(c2=S)Cc2c-1nc1cc3c(cc1c2CNC(=O)OCCO)OCCO3 [Compound 37]
- IC50 [1]: 54 pM
- IC50 [2]: 13500 pM
- IC50 [3]: 13 pM

SMILES: CC[C@@]1(O)C(=O)OCc2c1cc1n(c2=S)Cc2c-1nc1cc3c(cc1c2CNC(=O)[C@H]1C[C@@H](O)C1)OCCO3 [Compound 38]
- IC50 [1]: 234 pM
- IC50 [2]: 38400 pM
- IC50 [3]: 121 pM

SMILES: CC[C@@]1(O)C(=O)OCc2c1cc1n(c2=S)Cc2c-1nc1cc3c(cc1c2CNC(=S)CO)OCCO3 [Compound 39]
- IC50 [1]: 47 pM
- IC50 [2]: 8690 pM
- IC50 [3]: 482 pM

SMILES: CC[C@@]1(O)C(=O)OCc2c1cc1n(c2=S)Cc2c-1nc1cc3c(cc1c2CNC(=O)[C@H](C)O)OCCO3 [Compound 40]
- IC50 [1]: 53 pM
- IC50 [2]: 18200 pM
- IC50 [3]: 21 pM

SMILES: CC[C@@]1(O)C(=O)OCc2c1cc1n(c2=S)Cc2c-1nc1cc3c(cc1c2CNC(=O)[C@@H](C)O)OCCO3 [Compound 41]
- IC50 [1]: 231 pM
- IC50 [2]: 24100 pM
- IC50 [3]: 943 pM

SMILES: CC[C@@]1(O)C(=O)OCc2c1cc1n(c2=S)Cc2c-1nc1cc(Cl)c(C)cc1c2CNC(=O)[C@H]1C[C@@H](O)C1 [Example 42]
- IC50 [1]: 845 pM
- IC50 [2]: 40200 pM
- IC50 [3]: 4180 pM

SMILES: CC[C@@]1(O)C(=O)OCc2c1cc1n(c2=S)Cc2c-1nc1cc(Cl)c(C)cc1c2CNC(=O)[C@H](C)O [Example 43]
- IC50 [1]: 89 pM
- IC50 [2]: 9940 pM
- IC50 [3]: 1640 pM

SMILES: CC[C@@]1(O)C(=O)OCc2c1cc1n(c2=S)Cc2c-1nc1cc(F)c(F)cc1c2CNC(=O)[C@H]1C[C@@H](O)C1 [Example 44]
- IC50 [1]: 195 pM
- IC50 [2]: 5050 pM
- IC50 [3]: 674 pM

SMILES: CC[C@@]1(O)C(=O)OCc2c1cc1n(c2=S)Cc2c-1nc1cc(F)c(F)cc1c2CNC(=O)[C@H](C)O [Example 45]
- IC50 [1]: 2790 pM
- IC50 [2]: 3780 pM
- IC50 [3]: 4970 pM

SMILES: CCC1(O)CC(=O)OCc2c1cc1n(c2=O)Cc2c-1nc1cc(F)c(C)cc1c2CN (centres unmarked) [Example 47]
- IC50 [4]: 4370 pM
- IC50 [5]: 956 pM

SMILES: CCC1(O)CC(=O)OCc2c1cc1n(c2=O)Cc2c-1nc1cc(F)c(C)cc1c2CCCCO (centres unmarked) [Example 48]
- IC50 [4]: 17700 pM
- IC50 [5]: 832 pM

SMILES: CCC1(O)CC(=O)OCc2c1cc1n(c2=O)Cc2c-1nc1cc(F)c(F)cc1c2CN (centres unmarked) [Example 49]
- IC50 [4]: 24500 pM
- IC50 [5]: 11000 pM
